Results reported in article PMC6259260, “3-Acetyloxy-2-cyano-2-(alkylaminocarbamoyl)propyl Groups as Biodegradable Protecting Groups of Nucleoside 5´-mono-Phosphates” (Molecules, 2011).
Read-outs that look alike come from different tables or passages of the source. Marks after values point to notes of the source that are not given here. Each block holds one compound with its values, some of them ahead of it.

Key:
[1] = Non-enzymatic hydrolysis (hydrolytic stability) in buffer followed by RP HPLC; format: physicochemical; details: pH 7.5, 37 °C
Procedure: Hydrolysis of triester 1 was studied at pH 7.5 and 37 °C by analyzing the composition of the aliquots withdrawn from the reaction mixture at appropriate time intervals by RP HPLC. The products formed were identified by spiking with authentic samples and by mass spectrometric analysis (HPLC/ESI-MS). At pH 7.5-10, hydrolysis of the first acetic ester linkages of 1 (Reaction A in Scheme 4) was first-order in hydroxide-ion concentration. […] The subsequent departure of the remnants of this protecting group by retro-aldol condensation gave diester 4 (Route C) without accumulation of the monodeacetylated triester 14 as an intermediate. […]
The reactions were carried out in sealed tubes immersed in a thermostated water bath (37.0 ± 0.1 °C). […] The hydronium ion concentration of the buffer solutions was calculated with the aid of the known pKa values of the buffer acid under the experimental conditions. […]
The enzymatic hydrolysis was carried out with Hog Liver Esterase (26 units mL^-1) in a 2-[4-(2-hydroxyethyl)piperazin-1-yl)]ethanesulfonic acid (HEPES) buffer (0.040/0.024 mol L^-1) at pH 7.5 and 37 °C. […] The composition of the samples was analyzed on an ODS Hypersil C18 column (4 × 250 mm 5 μm, flow rate 1 mL min^-1), using a mixture of acetic acid/sodium acetate buffer (0.045/0.015 mol L^-1) and MeCN, containing ammonium chloride (0.1 mol L^-1). […]

[2] = system: hog liver carboxyesterase (HLE); assay: Hog liver carboxyesterase (HLE)-catalyzed hydrolysis/deprotection followed by HPLC; format: in vitro ADME; details: for half-life at 0.4 mmol L^-1: hog liver carboxyesterase (HLE); for level of accumulation of the intermediate, of the initial concentration of 1: during HLE (26 units mL^-1) hydrolysis of 1, pH 7.5, 37 °C
Procedure: The subsequent retro-aldol condensation of 14 to diester 4 ([M+H]^+ = 595.3; Reaction C) was, however, so fast that the amount of 14 remained less than 5% of the initial concentration of 1.
(§1) The reactions were carried out in sealed tubes immersed in a thermostated water bath (37.0 ± 0.1 °C). The oxonium ion concentration of the reaction solution (3.5 mL) was adjusted with glycine, 2-[4-(2-hydroxyethyl)piperazin-1-yl)]ethanesulfonic acid (HEPES) and 2-(N-morpholino)ethanesulfonic acid (MES) buffers. The ionic strength of the solutions was adjusted to 0.1 mol L^-1 with sodium chloride. The hydronium ion concentration of the buffer solutions was calculated with the aid of the known pKa values of the buffer acid under the experimental conditions. The initial substrate concentration was ca. 0.4 mmol L^-1.
The enzymatic hydrolysis was carried out with Hog Liver Esterase (26 units mL^-1) in a 2-[4-(2-hydroxyethyl)piperazin-1-yl)]ethanesulfonic acid (HEPES) buffer (0.040/0.024 mol L^-1) at pH 7.5 and 37 °C. The samples (200 μL) withdrawn at appropriate intervals were made acidic (pH 2) with 1 mol L^-1 aqueous hydrogen chloride to inactivate the enzyme and to quench the hydrolysis, cooled in an ice-bath and filtered with minisart RC 4 filters (0.45 μm). The composition of the samples was analyzed on an ODS Hypersil C18 column (4 × 250 mm 5 μm, flow rate 1 mL min^-1), using a mixture of acetic acid/sodium acetate buffer (0.045/0.015 mol L^-1) and MeCN, containing ammonium chloride (0.1 mol L^-1). A good separation of the product mixtures of 2 was obtained on using a 5 min isocratic elution with the buffer containing 2% MeCN, followed by a linear gradient (23 min) up to 40.0% MeCN. Signals were recorded on a UV-detector at a wavelength of 267 nm. The reaction products were identified by the mass spectra (LC/MS) using a mixture of water and acetonitrile containing a formic acid (0.1%) as an eluent (Gemini C18 column (2 × 150 mm 5 μm, flow rate 200 μL min^-1). The first order rate constants for the non-enzymatic hydrolysis of triester 1 were obtained by applying first-order rate-law to the diminution of the concentration of the starting material. The enzymatic deacetylations obeyed first-order kinetics at the high HLE concentrations employed.

[3] = system: hog liver carboxyesterase (HLE); assay: HLE-triggered hydrolysis in the presence of glutathione (GSH), followed by HPLC-ESI-MS; format: in vitro ADME; details: [GSH] = 5.4 mM
Procedure: The hydrolytic reactions of 1 was also carried out in the presence of glutathione ([GSH] = 5.4 mM) and carboxyesterase ([HLE] = 28.0 units mL^-1) in a 2-(N-morpholino)ethanesulfonic acid (MES) buffer (0.005/0.005 mol L^-1) at pH 6.2 and 37 °C. Under these conditions, the half-live for the deacetylation of 1 was 18 h. In 2 days, the starting material was converted almost quantitatively to a mixture of acetylated and deacetylated phosphodiester 4 and 16 ([4]/[16] is 1:1). At this stage, 2-cyano-N-(2-phenyl)ethylacrylamide (17) was captured as the glutathione conjugate (18; tR = 24.3 min, Route E). Product 18 was detected by both HPLC and LC-MS analysis ([M+H]^+ = 508.8; see Figure 3). In addition, glutathione was converted to its oxidized form glutathione disulfide (GSSG; [M+H]^+ = 613.5 and tR = 9.9 min).
as §1, with “The initial substrate concentration was ca. 0.4 mmol L^-1.” left out

[4] = parameters: method as in PMID 19462989; details: non-enzymatic, cited from earlier work; for half-life for the disappearance: pH 7.5, 25 °C
[5] = system: hog liver carboxyesterase (HLE); parameters: method as in PMID 19462989; details: cited from earlier work
[6] = HLE 26 units mL^-1, pH 7.5, 37 °C
[7] = HLE 26 units mL^-1, pH 7.5, 25 °C

half-life at 0.4 mmol L^-1 ([1]; aqueous buffer (glycine, HEPES or MES buffers), no enzyme, read-out: half-life, hydrolysis of the first acetic ester linkage (Reaction A) (converted)): 28 h
conversion to 5´-TMP, times as fast as 3 (comparison of half-lives of Reaction D) ([2]; HLE, pH 7.5, 37 °C): 3 times
half-life at 0.4 mmol L^-1 ([2]; pig, HLE 26 units mL^-1, pH 7.5, 37 °C, I = 0.1 mol L^-1, read-out: t1/2 Reaction A (enzymatic deacetylation of triester, disappearance of starting material)): 0.0633 h
half-life at 0.4 mmol L^-1 ([3]; hog, [HLE] = 28.0 units mL^-1, MES buffer, pH 6.2, 37 °C, read-out: half-life for the deacetylation (converted)): 18 h
Structure (SMILES): CC(=O)OCC(C#N)(COP(=O)(OCC1OC(n2cc(C)c(=O)[nH]c2=O)CC1O)OCC(C#N)(COC(C)=O)C(=O)NCCc1ccccc1)C(=O)NCCc1ccccc1 (stereo not shown) [compound 1, Thymidine 5´-bis[3-acetyloxy-2-cyano-2-(2-phenylethylcarbamoyl)propyl]phosphate]
first-order rate constant k, hydrolysis of the first acetic ester linkage (Reaction A) [1]: 7e-06 s⁻¹

half-life at 0.4 mmol L^-1 ([2]; hog, HLE 26 units mL^-1, pH 7.5, 37 °C, read-out: half-life for the disappearance (converted)): 47 h
Structure (SMILES): CC(=O)OCC(C#N)(COP(=O)(O)OCC1OC(n2cc(C)c(=O)[nH]c2=O)CC1O)C(=O)NCCc1ccccc1 (stereo not shown) [compound 4]

share of deacetylation to 15 (Reaction B) in the total disappearance of 14 [2, 6]: approximately 10%
share of retro-aldol condensation to diester 4 in the overall breakdown of 14 ([2]; HLE, pH 7.5, 37 °C): 90%
level of accumulation of the intermediate, of the initial concentration of 1 [2]: less than 5%
Structure (SMILES): CC(=O)OCC(C#N)(COP(=O)(OCC1OC(n2cc(C)c(=O)[nH]c2=O)CC1O)OCC(C#N)(CO)C(=O)NCCc1ccccc1)C(=O)NCCc1ccccc1 (stereo not shown) [compound 14]

The next lines start with the compound.

Structure (SMILES): CCOC(=O)C(COCOC(C)=O)(COP(=O)(OC[C@H]1O[C@@H](n2cc(C)c(=O)[nH]c2=O)C[C@@H]1O)OCC(COCOC(C)=O)(C(=O)OCC)C(=O)OCC)C(=O)OCC [compound 2, thymidine 5´-bis[3-acetyloxymethoxy-2,2-bis(ethoxycarbonyl)propyl]phosphate]
half-life, first of the consecutive deacetylations ([4]; pH 7.5, 37 °C): 32 h
t1/2 Reaction A [5, 6]: 0.17 min
t1/2 Reaction B [5, 6]: 0.90 min
t1/2 Reaction C [5, 6]: 10.4 min
t1/2 Reaction D [5, 6]: 3.5 h

Structure (SMILES): CCOC(=O)C(COC(C)=O)(COP(=O)(OC[C@H]1O[C@@H](n2cc(C)c(=O)[nH]c2=O)C[C@@H]1O)OCC(COC(C)=O)(C(=O)OCC)C(=O)OCC)C(=O)OCC [compound 3, thymidine 5´-bis[3-acetyloxy-2,2-bis(ethoxycarbonyl)propyl]phosphate]
half-life for the disappearance [4]: 20 days
t1/2 Reaction B [5, 7]: 31^a min
t1/2 Reaction C [5, 7]: 31^a min
t1/2 Reaction A [5, 6]: 3.2 min
t1/2 Reaction D [5, 6]: 151 h

Structure (SMILES): CCOC(=O)C(COC(C)=O)(COP(=O)(O)OC[C@H]1O[C@@H](n2cc(C)c(=O)[nH]c2=O)C[C@@H]1O)C(=O)OCC [compound 6]
half-life for the disappearance [4]: 160.4 days

Structure (SMILES): Cc1cn(C2CC(O)C(COP(=O)(O)OCC(C#N)(CO)C(=O)NCCc3ccccc3)O2)c(=O)[nH]c1=O (stereo not shown) [compound 16]
level of accumulation of the intermediate, of the initial concentration of 1 [2]: below 5%

Structure (SMILES): C=C(C#N)C(=O)NCCc1ccccc1 [compound 17, 2-cyano-N-(2-phenylethyl)acrylamide]
capture of the electrophilic by-product by glutathione ([3]; [HLE] = 28.0 units mL^-1, pH 6.2, 37 °C, detected as conjugate 18): largely trapped by glutathione
